SMILES strings stand for the structures.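 In this assay, cells in 96-well plates receive the compound at five concentrations for 48 hours. Endpoints are linearly interpolated between the surrounding concentrations. GI50: concentration for 50% inhibition of growth. TGI is the concentration that stops growth completely.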 Where only a bound is given, the exact number is not on record here.

Assay in all cases: NCI tumour cell line growth inhibition, 48 h
Test [1] concerns ACHN renal.
For test [2], the system named is HCT-15 colon.
Test [3] has as its system HT29 colon.
The subject of test [4] is KM12 colon.
For test [5], the system named is MALME-3M melanoma.
The subject of test [6] is MCF7 breast.
For test [7], the system named is MDA-MB-435.
Test [8] relates to MOLT-4 leukemia.
For test [9], the system named is SN12C renal.
Test [10] concerns UACC-62 melanoma.

As to `O=C(Nc1cccc(-n2cc(-c3ccncc3)c(-c3ccc(O)c(Cl)c3)n2)c1)Nc1cccc(C(F)(F)F)c1`, the GI50 in test [1] is 2.51 µM; in [2] it was 2.24 µM; in test [3], 3.75 µM; in [4], 1.72 µM; in test [5] it was 1.79 µM; in [6] it was 2.15 µM. Besides, the GI50 was 1.82 µM in test [7], 1.68 µM in [8], 2.86 µM in test [9] and 2.28 µM in test [10]. Further, the TGI in test [1] came to 8.4 µM; in test [2], 10.2 µM; in test [3] it was 13.7 µM; in test [4], 3.48 µM; in test [5] it was 6.45 µM; in test [6], 6.59 µM. Also, the TGI in test [7] was 4.65 µM; in [8], 4.94 µM; in test [9], greater than 100 µM; in [10], 5.5 µM.

In the case of `CC(C)Nc1ncc2cc(Oc3ccc(F)cc3F)c(=O)n(C)c2n1`, the GI50 in test [1], in test [2], in test [3], in test [4], in test [5] and in test [6] was greater than 25 µM in each case. Moreover, the GI50 is greater than 25 µM in test [7], greater than 25 µM in test [8], 21.4 µM in test [9] and greater than 25 µM in test [10]. Besides, the TGI in test [1], in test [2], in test [3], in test [4], in test [5] and in test [6] was greater than 25 µM throughout. In addition, the TGI in [7], in test [8], in [9] and in test [10] was greater than 25 µM throughout.

Take `COC1=C(Br)C(=O)C2=C(C1=O)C1C3=C(C(=O)C=CC3=O)C2c2ccccc21` (stereo not given): the GI50 in [1] was 14.8 µM; in test [2] it was 20 µM; in test [3] it was 31.9 µM; in test [4] it was 12.4 µM; in test [5], 27.8 µM; in test [6], 22.7 µM. Moreover, the GI50 in [7] is 18.2 µM; in test [8], 4.99 µM; in test [9], 11 µM; in test [10], 11.2 µM. The TGI in test [1] was 34.5 µM; in [2], 42.6 µM; in [3] it was greater than 100 µM; in [4] it was 32.1 µM; in test [5] it was 56.8 µM; in test [6] it was greater than 100 µM. Moreover, the TGI was 36.3 µM in [7], greater than 100 µM in test [8], 32.2 µM in test [9] and 27.8 µM in test [10].

As to `CCOC(=O)Nc1nc2c(C)cccc2s1`, the GI50 in [1] is 74.6 µM; in [2], 44.3 µM; in test [3] it was 46.8 µM; in test [4], 56.8 µM; in test [5], 56.3 µM; in [6], 29.2 µM. The GI50 in [7] is 48.9 µM; in [8] it was 38.1 µM; in test [9] it was 44.7 µM; in test [10], 36 µM. Besides, the TGI in test [1], in test [2], in [3], in [4], in test [5] and in test [6] was greater than 100 µM in each case. Also, the TGI in [7], in test [8], in test [9] and in [10] was greater than 100 µM throughout.

`CCOC(=O)c1cc(C(=O)c2cc(OC)c(OC)c(OC)c2)n2ccccc12`: the GI50 in [1] was 10.1 µM; in test [2] it was 0.0565 µM; in [3], 0.0425 µM; in [4], 0.0744 µM; in test [5] it was 1.06 µM; in test [6], 0.0606 µM. The GI50 was less than 0.0182 µM in test [7], 0.182 µM in test [8], 1.17 µM in [9] and 0.0439 µM in test [10]. The TGI in test [1], in [2], in test [3], in [4], in test [5] and in [6] was greater than 100 µM throughout. Also, the TGI was 0.205 µM in [7], greater than 100 µM in [8], greater than 100 µM in test [9] and greater than 100 µM in test [10].

On to `COc1ccccc1/C=C/C(=O)/C=C/c1ccccc1OC`, for which the GI50 in [1] was 1.91 µM; in test [2], 2.27 µM; in test [3], 2.24 µM; in test [4], 1.57 µM; in test [5] it was 2.11 µM; in [6], 0.37 µM. In addition, the GI50 in [7] was 2.04 µM; in [8], 2.4 µM; in test [9], 2.06 µM; in [10], 1.65 µM. The TGI in test [1] stood at 3.49 µM; in test [2], 10.5 µM; in test [3], 5.04 µM; in test [4] it was 3.39 µM; in [5], 4.35 µM; in test [6], 3.81 µM. The TGI was determined as 5.61 µM in [7], 9.06 µM in test [8], 5.21 µM in test [9] and 3.41 µM in test [10].

In the case of `COc1ccc(N(/C=C/C(=O)C(F)(F)F)CC(=O)c2ccc(Cl)c(Cl)c2)cc1`, the GI50 in test [1] was 12.2 µM; in test [2], 7.66 µM; in test [3], 29.8 µM; in test [4] it was 11.6 µM; in [5] it was 39.7 µM; in [6], 5.11 µM. For the same compound, the GI50 in test [7] is 12.1 µM; in test [8] it was 3.9 µM; in test [9] it was 14.5 µM; in test [10], 8.75 µM. Also, the TGI in test [1] is 25.1 µM; in [2], 21.4 µM; in test [3] it was greater than 100 µM; in test [4] it was 37.3 µM; in [5], greater than 100 µM; in test [6], 28.9 µM. Also, the TGI in test [7] is 25.4 µM; in test [8] it was greater than 100 µM; in [9], 33.5 µM; in [10], 22.8 µM.

`CC(=O)OC1Oc2ccccc2-c2oc(=O)c(-c3cc4ccccc4oc3=O)cc21` (stereo not given): the GI50 was 14.1 µM in test [1]; 22.3 µM in test [2]; 33 µM in test [3]; 41.4 µM in test [4]; 13.9 µM in [5]; 15.3 µM in test [6]. For the same compound, the GI50 in test [7] is 22.3 µM; in test [8], 25.4 µM; in test [9], 21.5 µM; in test [10] it was 17.4 µM. The TGI in test [1] is 29.6 µM; in test [2] it was greater than 100 µM; in [3], greater than 100 µM; in test [4] it was greater than 100 µM; in test [5], 36.5 µM; in [6] it was 34.1 µM. Moreover, the TGI in test [7] was found to be 79.6 µM; in test [8], 81.8 µM; in [9], 53.8 µM; in test [10] it was 35.1 µM.

`Cc1c(N=Cc2ccc(N(CCC#N)CCC#N)cc2)c(=O)n(-c2ccccc2)n1C`: the TGI in test [1] was 69.1 µM; in [2] it was greater than 100 µM; in [3], greater than 100 µM; in test [4], greater than 100 µM; in test [5], greater than 100 µM; in test [6], greater than 100 µM. Also, the TGI in test [7], in test [8], in [9] and in test [10] was greater than 100 µM in each case.

Take `O=C(COc1cccc(/C=C2\CSc3ccccc3C2=O)c1)c1ccc(Cl)cc1`: the GI50 is 1.78 µM in [1]; 1.92 µM in test [2]; 1.43 µM in test [3]; 1.29 µM in test [4]; 2.01 µM in test [5]; 0.458 µM in test [6]. Further, the GI50 was 1.64 µM in test [7], 1.07 µM in test [8], 2.54 µM in test [9] and 1.65 µM in test [10]. In addition, the TGI worked out at 3.5 µM in [1]; 5.37 µM in test [2]; 2.9 µM in test [3]; 2.75 µM in test [4]; 4.76 µM in [5]; 1.81 µM in test [6]. For the same compound, the TGI was 3.44 µM in test [7], 3.44 µM in test [8], 8.47 µM in test [9] and 3.24 µM in [10].

For `CCNCCCn1c2c(c3ccc([N+](=O)[O-])cc3c1=O)C(=O)c1cc(OC)cnc1-2`, the GI50 in test [1] was 0.0313 µM; in test [2], 0.184 µM; in test [3] it was 0.0579 µM; in test [4], 0.197 µM; in [5] it was 0.162 µM; in [6] it was 0.0186 µM. The GI50 in [7] is 0.133 µM; in test [8], 0.029 µM; in [9], 0.0531 µM; in [10], 0.0267 µM. Besides, the TGI in test [1] came to 0.144 µM; in test [2], 1.26 µM; in test [3] it was 1.25 µM; in [4], 0.505 µM; in test [5] it was 0.715 µM; in [6] it was 1.37 µM. Besides, the TGI in test [7] was 0.744 µM; in test [8] it was 0.25 µM; in test [9], 1.08 µM; in test [10], 0.168 µM.

`C[C@H](N)C(=O)N1C[C@H](CCCB(O)O)[C@](N)(C(=O)O)C1`: the GI50 in test [1], in test [2], in test [3], in test [4], in test [5] and in [6] was greater than 100 µM in each case. In addition, the GI50 in test [7], in test [8], in [9] and in [10] was greater than 100 µM each time. The TGI in test [1], in test [2], in [3], in [4], in [5] and in test [6] was greater than 100 µM each time. For the same compound, the TGI in [7], in [8], in [9] and in test [10] was greater than 100 µM each time.

The values above are taken from PubChem BioAssay (NCI).
